This passage reports GI50 and TGI results from PubChem BioAssay (NCI).

Some test systems named below: SK-OV-3 ovarian; ACHN renal; OVCAR-8 ovarian; 786-0 renal; MOLT-4 leukemia; HCC-2998 colon; SNB-19 CNS; HCT-15 colon; MALME-3M melanoma; DU-145 prostate.
Experiment in all cases: NCI anticancer screen, dose series, 48 h

Several values for one entry are separate records, joined by “and”; a condition that tells them apart may be missing. Equal entries are not always repeated.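 Five compound concentrations were applied to cells in 96-well plates for 48 hours; endpoints were derived by simple linear interpolation of the resulting dose-response curve. Here, GI50 denotes the concentration required for 50% inhibition of growth. The concentration for full growth arrest is given as TGI.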

Regarding `CN(C)c1ncnc2c1nnn2C1OC(CO)C(O)C1O` (configuration not stated), the GI50 is 0.0413 µM in the experiment with SK-OV-3 ovarian; 0.141 µM with ACHN renal; 0.0759 µM in the experiment on OVCAR-8 ovarian; 0.226 µM with 786-0 renal; 0.0635 µM with MOLT-4 leukemia; 0.325 µM with HCC-2998 colon. Also, the GI50 in the experiment on SNB-19 CNS is 1.06 µM; in the experiment on HCT-15 colon, 0.229 µM; in the experiment on MALME-3M melanoma, 0.332 µM; in the experiment with DU-145 prostate, 0.106 µM. Also, the TGI in the experiment with SK-OV-3 ovarian was 22.5 µM; in the experiment on ACHN renal, over 54 µM; in the experiment with OVCAR-8 ovarian, over 100 µM; in the experiment on 786-0 renal, over 100 µM; in the experiment with MOLT-4 leukemia it was over 100 µM; in the experiment on SNB-19 CNS, over 100 µM. In addition, the TGI in the experiment on HCT-15 colon is over 100 µM; with MALME-3M melanoma, 63.5 µM; in the experiment with DU-145 prostate, over 100 µM.
For `CN(C)c1ccc(/C=C(\C#N)c2nc3ccccc3n2C)cc1`, the GI50 in the experiment on SK-OV-3 ovarian was 4.09 µM; in the experiment on ACHN renal, 11.6 µM; with OVCAR-8 ovarian it was 4.79 µM; in the experiment on 786-0 renal, 8.77 µM; in the experiment with MOLT-4 leukemia it was 7.03 µM; with HCC-2998 colon, 4.43 µM. The GI50 in the experiment on SNB-19 CNS was 7.27 µM; in the experiment on HCT-15 colon it was 1.29 µM; with MALME-3M melanoma, 6.17 µM; with DU-145 prostate it was 2.99 µM. The TGI in the experiment on SK-OV-3 ovarian is 71.3 µM; in the experiment with ACHN renal, over 100 µM; in the experiment on OVCAR-8 ovarian, over 72.9 µM; in the experiment with 786-0 renal it was 99 µM; in the experiment on MOLT-4 leukemia, over 38 µM; with HCC-2998 colon it was 27.7 µM. The TGI in the experiment on SNB-19 CNS is over 100 µM; in the experiment on HCT-15 colon, over 87.6 µM; in the experiment on MALME-3M melanoma, 60.6 µM; in the experiment with DU-145 prostate it was 13.1 µM.
Turning to `CC(=O)OCC(=O)O[C@@H]1C[C@]2(C(C)C)O[C@@]1(C)[C@@H]1CC[C@@H](C)[C@H]1[C@@H]2OC(=O)/C=C/c1ccccc1`, the GI50 was 24.5 µM in the experiment with SK-OV-3 ovarian; 0.0316 µM in the experiment with ACHN renal; 0.0747 µM with OVCAR-8 ovarian; 0.931 µM with 786-0 renal; 20.3 µM with MOLT-4 leukemia; 20 µM with HCC-2998 colon. The GI50 is 30.2 µM in the experiment on SNB-19 CNS, 17.8 µM with HCT-15 colon, 20.7 µM with MALME-3M melanoma and 18.4 µM in the experiment on DU-145 prostate. Moreover, the TGI is over 97.2 µM in the experiment with SK-OV-3 ovarian; 12.5 µM in the experiment on ACHN renal; over 56.3 µM in the experiment with OVCAR-8 ovarian; 18.9 µM in the experiment on 786-0 renal; over 100 µM in the experiment on MOLT-4 leukemia; 75.3 µM in the experiment on HCC-2998 colon. Also, the TGI in the experiment with SNB-19 CNS is over 100 µM; with HCT-15 colon it was over 100 µM; in the experiment with MALME-3M melanoma, 88.8 µM; with DU-145 prostate it was 40.6 µM.
With `CN(N=O)C(=O)N[C@@H](C=O)[C@@H](O)[C@H](O)[C@H](O)CO`, the GI50 with SK-OV-3 ovarian, in the experiment on OVCAR-8 ovarian, in the experiment with 786-0 renal, in the experiment with MOLT-4 leukemia, in the experiment with HCC-2998 colon and in the experiment on SNB-19 CNS was over 750 µM each time. In addition, the GI50 in the experiment with HCT-15 colon and in the experiment with MALME-3M melanoma was over 750 µM throughout. Moreover, the TGI in the experiment with SK-OV-3 ovarian was 622 µM and > 750 µM; with ACHN renal it was over 750 µM; in the experiment with OVCAR-8 ovarian it was over 750 µM; with 786-0 renal, over 750 µM; in the experiment on MOLT-4 leukemia it was 574 µM and > 750 µM; in the experiment with HCC-2998 colon, 600 µM and > 750 µM. For the same compound, the TGI in the experiment with SNB-19 CNS was over 750 µM; in the experiment with HCT-15 colon, 666 µM and > 750 µM; in the experiment with MALME-3M melanoma it was 657 µM and > 750 µM; with DU-145 prostate it was over 750 µM.
For the compound `COC(=O)[C@]12CC[C@@H](C)[C@H](C)[C@@H]1C1=CC[C@@H]3[C@@]4(C)C(C=O)=C[C@@](C)(COC(=O)c5ccco5)[C@@H]4C(=O)C[C@@]3(C)[C@]1(C)CC2`, the GI50 in the experiment on SK-OV-3 ovarian was 43.1 µM; in the experiment on ACHN renal it was 1.22 µM; in the experiment on OVCAR-8 ovarian, 5.55 µM; in the experiment on 786-0 renal, 7.81 µM; with MOLT-4 leukemia, 2.08 µM; with HCC-2998 colon it was 6.22 µM. Moreover, the GI50 is 6.15 µM with SNB-19 CNS, 3.96 µM in the experiment with HCT-15 colon, 0.0359 µM in the experiment with MALME-3M melanoma and 8.8 µM with DU-145 prostate. Moreover, the TGI is over 100 µM in the experiment with SK-OV-3 ovarian; over 100 µM with ACHN renal; over 100 µM in the experiment with OVCAR-8 ovarian; over 100 µM with 786-0 renal; 7.8 µM with MOLT-4 leukemia; over 100 µM in the experiment on HCC-2998 colon. For the same compound, the TGI in the experiment on SNB-19 CNS is over 100 µM; with HCT-15 colon, over 100 µM; with MALME-3M melanoma, 0.256 µM; in the experiment with DU-145 prostate, over 100 µM.
Turning to `CN1CCN(Cc2ccc(NC(=O)c3cncc(C#Cc4cncc5ncccc45)c3)cc2C(F)(F)F)CC1`, the GI50 in the experiment with SK-OV-3 ovarian was 2.89 µM; with ACHN renal, 1.36 µM; in the experiment with OVCAR-8 ovarian, 4.53 µM; with 786-0 renal it was 9.81 µM; in the experiment on MOLT-4 leukemia it was 1.18 µM; with HCC-2998 colon, 2.46 µM. In addition, the GI50 in the experiment on SNB-19 CNS was 10.5 µM; with HCT-15 colon, 3.9 µM; with MALME-3M melanoma, 0.284 µM; with DU-145 prostate it was 4.64 µM. Besides, the TGI in the experiment on SK-OV-3 ovarian was 11.3 µM; in the experiment on ACHN renal, 10.5 µM; in the experiment on OVCAR-8 ovarian it was 18.3 µM; in the experiment on 786-0 renal it was 22.2 µM; with MOLT-4 leukemia it was 16 µM; with HCC-2998 colon it was 17.6 µM. In addition, the TGI worked out at 22.3 µM in the experiment on SNB-19 CNS, 14.7 µM in the experiment on HCT-15 colon, 1.05 µM in the experiment with MALME-3M melanoma and 16.8 µM in the experiment with DU-145 prostate.
`Cn1cc(C2=C(c3cccnc3)C(=O)NC2=O)c2ccccc21`: the GI50 in the experiment with SK-OV-3 ovarian is over 22.9 µM; with ACHN renal, 14.1 µM; in the experiment on OVCAR-8 ovarian, over 25 µM; in the experiment on 786-0 renal, over 25 µM; with MOLT-4 leukemia it was over 21.6 µM; in the experiment on HCC-2998 colon, over 25 µM. Moreover, the GI50 in the experiment with SNB-19 CNS, with HCT-15 colon, with MALME-3M melanoma and in the experiment on DU-145 prostate was over 25 µM in each case. The TGI in the experiment on SK-OV-3 ovarian, with ACHN renal, in the experiment with OVCAR-8 ovarian, in the experiment with 786-0 renal, in the experiment on MOLT-4 leukemia and in the experiment on HCC-2998 colon was over 25 µM throughout. The TGI with SNB-19 CNS, with HCT-15 colon, with MALME-3M melanoma and with DU-145 prostate was over 25 µM each time.
